Results from US20250275968A1, “INHIBITORS OF TAU PROTEINS” (DEUTSCHES ZENTRUM FÜR NEURODEGENERATIVE ERKRANKUNGEN E.V., priority 2022, published 2025).
Structures can show the parent of a compound that is named as a salt.

Tests used:
[1] = system: HEK293T biosensor cells expressing the human tau repeat domain (RD) harboring the P301L/V337M mutation (TauRD^LM-GFP); assay: HEK biosensor cell tau seeding assay; format: cell-based; details: for compound concentration up to which total amount of cells remained close to 100% (low toxicity): HEK biosensor cells, relative to vehicle (DMSO)
Description: Compound stock solutions were prepared as 10 mM compound in DMSO.
HEK293T biosensor cells expressing the human tau repeat domain (RD) harboring the P301L/V337M mutation and fused to a C-terminal GFP tag (named TauRD^LM-GFP) were engineered to probe Tau seeding in cellula (Reference: Liu, S., Hossinger, A., Heumüller, S E. et al. Highly efficient intercellular spreading of protein misfolding mediated by viral ligand-receptor interactions. Nat Commun 12, 5739 (2021). https://doi.org/10.1038/s41467-021-25855-2). HEK cells expressing the P301L human full-length Tau, C-terminally tagged with GFP were incubated with pre-sonicated hTau40^P301L fibrils to induce Tau aggregate formation. Cells were harvested and the resulting cell lysate was used to seed Tau aggregation in further experiments with HEK TauRD^LM-GFP cells.
In a typical seeded assay, HEK cells were incubated with cell lysate, compounds (0-40 μM) and lipofectamine for 22-48 hours. Negative control experiments in the absence of compounds (only with vehicle DMSO) and in the presence of cell lysate were performed in parallel.
Dose response curves were constructed by quantifying the number of cells with aggregates for each compound concentration. The curves were fitted with a sigmoid function using Graphpad PRISM version 8. The inhibitory concentration at 50% activity (IC50) was determined for each compound.

[2] = system: tau-induced degeneration of Drosophila eyes (GMR-Gal4/WT tau); assay: Drosophila neurodegeneration model (eye degeneration); format: in vivo; details: GMR-Gal4/WT tau flies treated in food from larvae stage to adult stage
Description: Stock solutions of individual compounds were prepared by dissolving 10 mg of the compound in 100 μl of 100% DMSO. Osimertinib, Osimertinib mesylate and AZ7550 mesylate were orally fed to the flies by mixing them with food. The final concentration of each compound, which was used for treating the Drosophila, was derived on the basis of recommended concentrations for human use (reference concentration) based on body weight.
We have used three concentrations for each compound. One was equal to the reference concentration, and two were higher than the reference concentration. Final concentrations of different compounds mixed with fly food are: Osimertinib mesylate, […]; Osimertinib, […]; AZ 7550 mesylate, 10 µM and 20 µM. After hatching, first instar larvae were transferred onto the food containing one of the compounds. Food mixed with drug at required concentration was replaced with fresh food every 48 h.
Light microscopy was performed after mounting the fly heads on the glass slide using a double-sided adhesive tape. Full-eye images were captured with the help of an Infinity Analyze camera attached to an Olympus SZX7 microscope with a halogen light source. Total eye surface area and degenerated eye surface area were marked and calculated with Infinity Analyze software (Lumenera corporation). Percentage of degenerated area was calculated and plotted using GraphPad Prism 8.
After the eclosion, treated and control flies (2-3 days old) were fixed in 1% formaldehyde for two hours, followed by serial dehydration steps of 12 hrs each in 25%, 50%, 75% and 100% ethanol were carried out. Flies were stored in 100% ethanol and dried with CPD before mounting on the stab for imaging. Eye Images were captured at 150× and analyzed using Infinity Analyze software.

2N4R tau aggregates = target: T1, 2N4R tau aggregates (Homo sapiens, UniProt P10636); assay: Dissolution of preformed 2N4R tau fibrils (ThT fluorescence, TEM); format: biochemical; details: compounds added to tau fibrils after about 40 h; tau monomer:Compound 1:3 and 1:10
T1 construct: Full-length 2N4R tau was incubated with Osimertinib mesylate
Description: (A) ThT fluorescence curves monitoring tau aggregation. tau fibrillization reached a saturation point within about 40 h, then compounds or buffer (Reference) were added to tau fibrils (tau monomer:Compound mole ratios 1:3 and 1:10). The experiment was performed in duplicate. […] Statistically significant differences were determined by one-way ANOVA with Dunnett's multiple comparison test. Significant differences corresponding to p≤0.0002(***) and p≤0.0001(****) are indicated. […] Scale bars are 500 nm. […] The dotted line corresponds to one standard deviation above the Reference value.
(§1) To prepare the Tau fibril seeds by de novo aggregation, 2N4R Tau at a monomer concentration of 25 μM was diluted in aggregation buffer. The working concentration of TCEP in the aggregation mixture was <25 μM after dilution of the stock. To this mixture, Thioflavin T (ThT) was added to a final concentration of 50 μM. A total volume of 100 μL of the Tau-ThT mixture was incubated in a well of a 96-well microplate (Greiner Bio-one), in the presence of two polytetrafluoroethylene beads. The microplate was subjected to a program implemented in a Tecan Spark plate reader that involved incubating at 37° C., with intervals of double orbital shaking and ThT fluorescence emission measurement. The excitation wavelength for ThT was set as 430 nm and the emission wavelength was 485 nm. Details of this plate reader program were published previously (Reference: Chakraborty, P. et al. Co-factor-free aggregation of tau into seeding-competent RNA-sequestering amyloid fibrils. Nat. Commun. 12, 4231 (2021)). […] The fibril-containing mixture collected from the microplate served as a seeding mixture for the subsequent aggregation assays.
Fibril samples were negative stained using glow discharged 400 mesh carbon-coated copper grids. After staining using a 1% uranyl acetate solution, images were acquired on a Talos L120C transmission electron microscope (Thermo Fisher, Eindhoven, The Netherlands).

15N-labeled 2N4R tau = target: T2, 15N-labeled 2N4R tau (Homo sapiens, UniProt P10636); assay: SOFAST-HMQC NMR binding to monomeric tau; details: 18 μM tau, 50 mM sodium phosphate pH 6.8, 16 h at 37° C., spectra at 5° C.
T2 construct: Full-length 2N4R tau was incubated with Osimertinib mesylate
From the text: (A) Overlaid spectra of 2N4R tau with (black) and without (grey) a 100-fold molar excess of Osimertinib mesylate.
To obtain residue-specific information about the interaction between Tau and the compounds, ^1H-^15N correlation spectra of 2N4R Tau were monitored over the course of a titration with increasing amounts of compound. The ^1H-^15N SOFAST-HMQC (Reference: Schanda, P., Kupce, E. & Brutscher, B. SOFAST-HMQC experiments for recording two-dimensional heteronuclear correlation spectra of proteins within a few seconds. J. Biomol. NMR 33, 199-211 (2005)) spectra of [U-^15N]-Tau were acquired at 5° C. on a Bruker 800 MHz spectrometer equipped with a triple-resonance cryoprobe. Tau samples (18-25 μM) were prepared in NMR buffer containing 10% (v/v) D2O, and with compound concentrations that corresponded to Tau:compound mole ratios of 1:10 and 1:100. All NMR samples were incubated overnight (˜16 h) at 37° C. prior to spectral acquisition. Tau amide assignments were taken from a previous study (Reference: Mukrasch, M. et al. Structural polymorphism of 441-residue tau at single residue resolution. PLoS Biol. 7, e34 (2009)). However, because previous assignments were obtained using a Tau sample prepared in the presence of reducing agents, some amide resonances belonging to the repeat region of Tau (close to C291 and C322) were not unambiguously transferred to the SOFAST-HMQC spectra acquired under oxidizing conditions. Therefore, to obtain nearly complete backbone assignments in the repeat region, 3D HNCA, 3D HNCOCA, and 3D CBCACONH spectra were recorded for a [U-^13C,^15N]-4R Tau (K18 construct) sample prepared under the same buffer condition. The weighted, normalized chemical shift perturbations (CSP) were calculated as CSP=√[0.5 [(Δδ H)^2+(Δδ N)^2/25]. NMR signal intensity ratios, I/I0 (where I is the peak intensity of Tau amide backbone resonances in the presence of the compounds, and I0 is the peak intensity in the absence of the compounds), were calculated for each titration point.

2N4R Tau fibrils = target: T3, 2N4R Tau fibrils (Homo sapiens, UniProt P10636); assay: Saturation transfer difference (STD) NMR with tau fibrils; format: binding; details: 48-fold excess of compound, 100 mM NaCl, 2.5% (v/v) DMSO, pH 6.8, 37° C.
T3 construct: Full-length 2N4R tau was incubated with Osimertinib mesylate
Description: 2N4R Tau fibrils were prepared using the aggregation procedure described in the section in vitro assay 1 without Thioflavin T. The mole ratio of “free” compound to fibrils was 48:1 (corresponding to a total compound concentration of 250 μM and a total fibril concentration of 5 μM Tau). The NMR samples were prepared in 50 mM sodium phosphate with 100 mM NaCl and 2.5% (v/v) DMSO at pH 6.8. The spectra were recorded at 37° C. using a Bruker 700 MHz spectrometer equipped with a triple resonance cryoprobe. 1D ^1H-NMR STD spectra were acquired in an interleaved manner, alternating between off-resonance irradiation at 60 ppm and on-resonance irradiation at −2 ppm.

2N4R tau = target: T4, 2N4R tau (Homo sapiens, UniProt P10636); assay: In vitro seeded aggregation/fibrillization assay of 2N4R tau (ThT fluorescence); format: biochemical
T4 construct: Full-length 2N4R tau was incubated with Osimertinib mesylate
Description: Aggregation of 2N4R Tau was performed using a previously published co-factor-free aggregation protocol, with a few modifications (Reference: Chakraborty, P. et al. Co-factor-free aggregation of tau into seeding-competent RNA-sequestering amyloid fibrils. Nat. Commun. 12, 4231 (2021)). Aggregation experiments used the Tau protein stock prepared in 25 mM HEPES pH 7.4, 1 mM TCEP. Stocks of compounds were prepared in aggregation buffer (25 mM HEPES, 10 mM KCl, 5 mM MgCl2, pH 7.2) or in DMSO (10 mM compound).
as §1
Seeded aggregation assays were performed as described above but with 1.0% of the well volume occupied by the seeding mixture sonicated for 1 minute. The assays were performed in the presence and absence of compounds, and working concentrations ranged from 0-250 μM compound.
Analyses of the fluorescence curves were performed using Graphpad PRISM version 8. Fluorescence data were fit to a sigmoid function. The number of hours corresponding to half-maximal ThT Fluorescence™ as well as the span of fluorescence intensity (Span) were determined for each sigmoid curve. Statistically significant differences were determined by one-way ANOVA analysis with Dunnett's multiple comparison test or unpaired t-test.

tau(244-372, 13818 Da) = target: T5, tau(244-372, 13818 Da) (Homo sapiens, UniProt P10636); assay: ESI-MS covalent modification of tau; format: binding
T5 construct: comprising residues 244-372 of 2N4R Tau
Description: This analysis was performed using the 4R Tau construct (K18 construct, 13818 Da) comprising residues 244-372 of 2N4R Tau. Compounds (330 μM) were incubated with 4R Tau (65 μM) for 16 h at 37° C. in 10 mM ammonium bicarbonate at pH 7.0. The compound/4R Tau mixtures were injected into an LC system (ACQUITY) coupled to a single quadrupole mass detection system (SQ Detector 2, Waters) with diode-array detectors (DAD). The DAD spectrum covers wavelengths of 210-400 nm. Components of the compound-4R Tau mixture were separated using a BioResolve RP mAb column (Waters) with a gradient of 5-95% buffer B (buffer A is 0.1% TFA in water and buffer B is 0.1% TFA in acetonitrile). Covalent modification of 4R Tau corresponded to mass additions of 500 Da (Osimertinib) and 486 Da (AZ7550 or AZ5104).

T4 sequence (P10636 1-441 isoform P10636-8): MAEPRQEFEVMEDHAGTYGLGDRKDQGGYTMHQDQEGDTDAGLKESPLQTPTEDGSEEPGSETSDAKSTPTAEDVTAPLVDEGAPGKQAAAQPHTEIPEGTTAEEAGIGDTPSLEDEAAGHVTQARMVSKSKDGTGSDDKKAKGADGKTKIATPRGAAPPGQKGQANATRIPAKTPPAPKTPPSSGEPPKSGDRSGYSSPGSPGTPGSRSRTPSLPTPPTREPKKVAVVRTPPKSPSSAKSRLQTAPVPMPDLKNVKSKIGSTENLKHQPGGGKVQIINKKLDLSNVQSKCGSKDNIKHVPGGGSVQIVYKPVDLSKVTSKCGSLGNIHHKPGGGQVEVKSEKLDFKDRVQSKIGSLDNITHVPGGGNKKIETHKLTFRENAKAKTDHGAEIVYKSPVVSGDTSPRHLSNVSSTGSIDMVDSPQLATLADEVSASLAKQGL
T3 sequence (P10636 1-441 isoform P10636-8): as above
T2 sequence (P10636 1-441 isoform P10636-8): as above
T1 sequence (P10636 1-441 isoform P10636-8): as above
T5 sequence (P10636 561-689): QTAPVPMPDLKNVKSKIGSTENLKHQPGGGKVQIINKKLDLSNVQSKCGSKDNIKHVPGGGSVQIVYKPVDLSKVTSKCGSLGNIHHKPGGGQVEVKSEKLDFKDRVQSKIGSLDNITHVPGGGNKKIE

SMILES: O=C(O[C@@H]1Cc2c(O)cc(O)cc2O[C@@H]1c1cc(O)c(O)c(O)c1)c1cc(O)c(O)c(O)c1 [EGCG]
- inhibitory activity toward the aggregation of tau in HEK biosensor cells (number of cells with aggregates relative to DMSO) ([1]; control compounds compared with Osimertinib, compound 2 and compound 3): much lower inhibitory activity

SMILES: C=CC(=O)Nc1cc(Nc2nccc(-c3cn(C)c4ccccc34)n2)c(OC)cc1N(C)CCNC [AZ7550 mesylate, N-[4-methoxy-5-[[4-(1-methyl-1H-indol-3-yl)-2-pyrimidinyl]amino]-2-[methyl[2-(methylamino)ethyl]amino]phenyl]-2-Propenamide]
- tau-induced degeneration of Drosophila eyes (percent degeneration, light microscopy) [2]: rescue tau-induced degeneration of Drosophila eyes

SMILES: C=CC(=O)Nc1cc(Nc2cc(-c3cn(C)c4ccccc34)nc(OC)n2)c(OC)cc1N(C)CCN(C)C [Compound 9]
- compound concentration up to which total amount of cells remained close to 100% (low toxicity) [1]: about 4.0 μM

SMILES: C=CC(=O)Nc1cc(Nc2nccc(-c3cn(C)c4ccccc34)n2)c(OC)cc1N(C)CCNC [AZ7550 hydrochloride, N-[4-methoxy-5-[4-(1-methyl-1H-indol-3-yl)-2-pyrimidinyl]amino]-2-[methyl[2-(methylamino)ethyl]amino]phenyl]-2-Propenamide hydrochloride]
- dissolution of 2N4R tau aggregates (reduction of ThT fluorescence intensity) (2N4R tau aggregates): partially dissolve
- binding to tau (NMR spectroscopy) (15N-labeled 2N4R tau): reveals binding
- STD effect with tau fibrils (fibril binding epitopes) (2N4R Tau fibrils): Protons showing STD effects
- compound concentration up to which total amount of cells remained close to 100% (low toxicity) [1]: about 5.0 μM

SMILES: C=CC(=O)Nc1cc(Nc2nccc(-c3cn(C)c4ccccc34)n2)c(OC)cc1N(C)CCNC [Compound 2]
- In vitro seeded aggregation/fibrillization of full-length tau (ThT fluorescence curves) (2N4R tau; 2N4R tau, various formulations): inhibited in a dose-dependent manner
- covalent modification of cysteines in tau (ESI-MS) (tau(244-372, 13818 Da)): confirms covalent modification of cysteines

SMILES: C=CC(=O)Nc1cc(COc2cc(-c3cn(C)c4ccccc34)ccn2)ccc1N1CCCC1 [Compound 31]
- efficacy of aggregation delay compared to Compound 1 (2N4R tau; 1:3 Tau:compound mole ratio, 2.5% (v/v) DMSO): notably more efficacious
- normalized Tm, extent of aggregation delay (2N4R tau; 1:3 Tau:compound mole ratio, 2.5% (v/v) DMSO, at least 3 replicates): significant delay of aggregation
